Results: ChEMBL document CHEMBL6134916, “Novel Substituted Cyclic Compounds as SLC6A19 Inhibitors for Treating Phenylketonuria and Other Amino Acidurias” (ACS Med Chem Lett, 2025)

Target: T1, Sodium-dependent neutral amino acid transporter B(0)AT1 (Homo sapiens, UniProt Q695T7)
T1 sequence (Q695T7 whole entry): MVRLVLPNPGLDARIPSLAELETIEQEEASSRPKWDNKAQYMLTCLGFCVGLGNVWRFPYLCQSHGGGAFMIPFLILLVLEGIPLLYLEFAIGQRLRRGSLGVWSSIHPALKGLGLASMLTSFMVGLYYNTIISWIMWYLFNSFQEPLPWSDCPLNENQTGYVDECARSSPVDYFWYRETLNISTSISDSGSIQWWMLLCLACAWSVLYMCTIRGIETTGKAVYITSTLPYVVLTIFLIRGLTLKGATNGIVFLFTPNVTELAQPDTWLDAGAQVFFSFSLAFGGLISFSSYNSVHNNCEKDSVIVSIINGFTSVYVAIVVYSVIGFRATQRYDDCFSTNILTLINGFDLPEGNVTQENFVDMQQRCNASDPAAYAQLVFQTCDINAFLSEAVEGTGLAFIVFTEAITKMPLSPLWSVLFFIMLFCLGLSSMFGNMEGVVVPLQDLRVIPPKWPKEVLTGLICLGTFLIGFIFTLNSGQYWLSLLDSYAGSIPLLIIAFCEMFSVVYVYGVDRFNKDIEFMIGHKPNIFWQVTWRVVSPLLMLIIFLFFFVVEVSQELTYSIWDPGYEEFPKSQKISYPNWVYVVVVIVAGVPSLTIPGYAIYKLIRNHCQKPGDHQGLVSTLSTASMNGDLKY
Test: Inhibition of human SLC6A19 expressed in MDCK cells co-expressing human TMEM27 using 13C6/15N-L-Isoleucine as substrate preincubated for 20 mins followed by substrate addition and measured after 20 mins by stable isotope uptake assay
Type: cell-based

`CNC(=O)c1cc2c(-c3ccc(C(=O)NCc4cccc(C(F)(F)F)c4)cc3)cc(C)c(F)c2[nH]1` and `CNC(=O)c1cc2c(-c3ccc(C(=O)NCc4cccc(C(F)(F)F)c4)cc3)ccc(F)c2[nH]1` are within 1.5-fold of each other in IC50: 5 nM for the first, 4 nM for the second.

`CNC(=O)c1cc2c(-c3ccc(C(=O)NCc4cccc(C(F)(F)F)c4)cc3)c(OC)ccc2[nH]1` and `CNC(=O)c1cc2c(-c3ccc(C(=O)NCc4cccc(C(F)(F)F)c4)cc3)cc(C(C)C)cc2[nH]1` are the same in IC50: 5 nM for the first, 5 nM for the second.

`CNC(=O)c1cc2c(-c3ccc(C(=O)NCc4cc(C(F)(F)F)ccc4F)cc3F)cccc2[nH]1` and `CNC(=O)c1cc2c(-c3ccc(C(=O)NCc4cccc(C(F)(F)F)c4)cc3Cl)cccc2[nH]1` are within 1.5-fold of each other in IC50: 4 nM for the first, 3 nM for the second.
